From patent US10188695B2, “Calcineurin inhibitors for use in the treatment of lesional vestibular disorders” (Institut National De La Santé Et De La Recherche Médicale, priority 2012, dated 2019)

Test system: excitotoxically induced lasting vestibular deficits
Test: Kainic acid excitotoxic vestibular lesion in rats, spontaneous nystagmus by infra-red videonystagmography (FK-506 treatment)
Assay type: in vivo, rat
Conditions: t=24 h
Procedure: Two inverted 3 mm bolts partially encased in dental acrylic were surgically fixed to the skull of female Long-Evans rats under deep ketamine-xylazine anesthesia using self-tapping surgical screws and cyanoacrylate. Each animal was allowed to recover for 1 week before experiencing 4 training sessions with head fixation (5-10 min) of increasing duration in the week preceding the experiments.
Under visual control using a surgical microscope, each rat received transtympanic injections of 50 μL 15 mM kainic acid in physiological serum with 10 mg/mL benzyl alcohol at t=0 h and 25 μL 15 mM kanic acid in physiological serum with 10 mg/mL benzyl alcohol at t=2 h.
At t=1 h the behaviorally associated vestibular deficits of each transtympanically injected animal was determined using 5 classical criteria each scored on a 0-4 scale: Circling, head-bobbing, degree of head-tilt, tail-hanging reflex deficit and air-righting reflex deficit. […]
Spontaneous eye-movements were recorded at t=1 h and t=24 h in the dark using an ISCAN ETL-200 infra-red videooculography system under head-fixed conditions. […]
The spontaneous nystagmus frequency in videooculography traces recorded at t=1 h (pre-treatment) and t=24 h (chronic deficit) was determined using custom routines written in MatLab R2011b (The Mathworks, Natick, Mass.). […]

C=CC[C@@H]1/C=C(\C)C[C@H](C)C[C@H](OC)[C@H]2O[C@@](O)(C(=O)C(=O)N3CCCC[C@H]3C(=O)O[C@H](/C(C)=C/[C@@H]3CC[C@@H](O)[C@H](OC)C3)[C@H](C)[C@@H](O)CC1=O)[C@H](C)C[C@@H]2OC [FK-506, tacrolimus] was tested, and the “normalized chronic spontaneous nystagmus frequency” value (normalized to group mean at t=1 h, single i.p. injection 2.5 mg/kg at t=1 h, Long-Evans rats, in the dark) was 26.9±11.8% and the “reduction of lasting vestibular deficits (spontaneous nystagmus in the dark) vs sham” value (single i.p. injection 2.5 mg/kg, p=0.014) was 43%.
